Test results: PMC11766267 (International Journal of Molecular Sciences, 2025)
“And” between values parts separate entries of the source, which are not always exact repeats. Equal entries are not always repeated. Where two headings read alike, the source gives them in different places.

Tests used:
HCT-116 = assay: MTT cytotoxicity assay, HCT-116; assay type: cell-based; details: Homo sapiens, 24 h treatment, mean ± SD of triplicate
Summary of the method: (§1)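 MTT read-out; insoluble formazan dissolved in 100 µL dimethyl sulfoxide before measurement.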

[1] = test system: HCT-116, MDA-MB-231, HeLa, and MCF-7; assay: MTT cytotoxicity assay, ranges stated over several cell lines; assay type: cell-based; details: Homo sapiens, range over the compounds named
Summary of the method: as §1

MCF-7a = assay: In vitro anti-estrogenic activity assay, MCF-7a
CDK2 = CDK2 (Homo sapiens, UniProt P24941); assay: In vitro protein kinase inhibition assay (ELISA kit), CDK2
MCF-7 [2] = assay: In vitro anti-estrogenic activity assay, MCF-7
HER2 = HER2 (Homo sapiens, UniProt P04626); assay: In vitro protein kinase inhibition assay (ELISA kit), HER2
Sequence of HER2 (P04626 23-1255): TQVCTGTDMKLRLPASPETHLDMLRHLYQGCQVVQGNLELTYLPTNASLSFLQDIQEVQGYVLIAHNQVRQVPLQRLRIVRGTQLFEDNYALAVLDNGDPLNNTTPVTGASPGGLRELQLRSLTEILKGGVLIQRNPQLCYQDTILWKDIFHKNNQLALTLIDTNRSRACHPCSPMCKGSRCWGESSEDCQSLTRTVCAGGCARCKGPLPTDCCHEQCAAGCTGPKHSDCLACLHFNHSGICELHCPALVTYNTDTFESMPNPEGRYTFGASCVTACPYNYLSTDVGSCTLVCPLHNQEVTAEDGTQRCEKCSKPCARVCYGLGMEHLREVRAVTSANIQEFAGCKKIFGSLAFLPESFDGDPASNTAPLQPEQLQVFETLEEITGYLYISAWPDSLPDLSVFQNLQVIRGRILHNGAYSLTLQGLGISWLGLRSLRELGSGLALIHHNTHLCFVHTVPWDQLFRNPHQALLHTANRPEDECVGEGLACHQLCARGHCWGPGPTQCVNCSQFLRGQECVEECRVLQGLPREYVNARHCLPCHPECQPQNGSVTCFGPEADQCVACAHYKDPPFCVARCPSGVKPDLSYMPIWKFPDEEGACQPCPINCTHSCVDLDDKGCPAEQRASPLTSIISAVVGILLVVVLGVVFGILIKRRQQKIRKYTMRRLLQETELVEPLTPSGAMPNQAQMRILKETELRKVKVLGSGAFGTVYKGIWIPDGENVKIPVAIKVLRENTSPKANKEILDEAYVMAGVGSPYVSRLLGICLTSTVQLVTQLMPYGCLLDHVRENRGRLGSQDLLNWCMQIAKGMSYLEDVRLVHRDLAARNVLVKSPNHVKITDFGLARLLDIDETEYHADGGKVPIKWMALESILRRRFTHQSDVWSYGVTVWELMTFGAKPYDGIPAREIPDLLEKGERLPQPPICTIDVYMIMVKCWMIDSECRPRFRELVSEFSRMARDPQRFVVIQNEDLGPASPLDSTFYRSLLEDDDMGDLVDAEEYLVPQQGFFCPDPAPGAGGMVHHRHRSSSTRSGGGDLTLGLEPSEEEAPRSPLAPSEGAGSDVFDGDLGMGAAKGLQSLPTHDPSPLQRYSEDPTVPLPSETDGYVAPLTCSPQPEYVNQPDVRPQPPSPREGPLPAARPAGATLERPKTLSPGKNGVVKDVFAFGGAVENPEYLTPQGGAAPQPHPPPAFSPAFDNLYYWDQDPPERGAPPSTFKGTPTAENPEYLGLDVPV

[3] = target: T1, aromatase (CYP19A, EC 1.14.14.14) (Homo sapiens, UniProt P11511); assay: biochemical
T1 construct: Microsomal samples were isolated from tissue using the Microsome Isolation Kit; tissue BioVision K983-100; host or cells: microsomes from an unnamed tissue
T1 sequence (P11511 1-503): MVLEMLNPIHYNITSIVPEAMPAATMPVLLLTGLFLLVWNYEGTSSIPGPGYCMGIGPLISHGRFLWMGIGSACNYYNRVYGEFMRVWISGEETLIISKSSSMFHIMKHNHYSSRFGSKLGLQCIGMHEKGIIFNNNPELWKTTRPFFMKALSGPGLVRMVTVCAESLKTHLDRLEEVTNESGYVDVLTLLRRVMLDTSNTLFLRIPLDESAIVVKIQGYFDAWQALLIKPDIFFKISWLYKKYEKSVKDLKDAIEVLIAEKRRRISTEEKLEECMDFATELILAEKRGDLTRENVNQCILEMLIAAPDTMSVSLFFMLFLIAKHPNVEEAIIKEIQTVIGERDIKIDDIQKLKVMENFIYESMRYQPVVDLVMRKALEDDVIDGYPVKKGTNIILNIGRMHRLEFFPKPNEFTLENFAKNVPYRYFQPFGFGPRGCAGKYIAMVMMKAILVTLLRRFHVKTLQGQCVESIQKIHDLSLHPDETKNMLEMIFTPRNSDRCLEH
Experimental: In vitro aromatase assay was performed using the BioVision Aromatase Activity Assay Kit (Catalog # K983-100; BioVision, Milpitas, CA, USA). Microsomal samples were isolated from tissue using the Microsome Isolation Kit (Cat. #K249; BioVision, Milpitas, CA, USA). A standard curve was established by diluting the Fluorescence Standard provided in the kit to create a 0.5 pmole/µL solution, followed by setting up a series of standards in a white 96-well plate, adjusting the total volume to 100 µL with aromatase assay buffer. For each reaction well, a 2X concentrated mix was prepared by adding 2–48 µL of the microsomal sample and 2 µL of the NADPH generating system, bringing the final volume to 50 µL with aromatase assay buffer. Background controls (no enzyme) and positive controls (with recombinant aromatase) were included. […] After a 10 min incubation at 37 °C, 30 µL of the substrate/NADP+ mixture was added to each well, and fluorescence was measured immediately in kinetic mode for 60 min at 37 °C. Finally, the change in fluorescence was calculated to determine the specific activity of aromatase using the formula provided in the kit protocol.

VEGFR-2 = VEGFR-2 (Homo sapiens, UniProt P35968); assay: In vitro protein kinase inhibition assay (ELISA kit), VEGFR-2
Sequence of VEGFR-2 (P35968 20-1356): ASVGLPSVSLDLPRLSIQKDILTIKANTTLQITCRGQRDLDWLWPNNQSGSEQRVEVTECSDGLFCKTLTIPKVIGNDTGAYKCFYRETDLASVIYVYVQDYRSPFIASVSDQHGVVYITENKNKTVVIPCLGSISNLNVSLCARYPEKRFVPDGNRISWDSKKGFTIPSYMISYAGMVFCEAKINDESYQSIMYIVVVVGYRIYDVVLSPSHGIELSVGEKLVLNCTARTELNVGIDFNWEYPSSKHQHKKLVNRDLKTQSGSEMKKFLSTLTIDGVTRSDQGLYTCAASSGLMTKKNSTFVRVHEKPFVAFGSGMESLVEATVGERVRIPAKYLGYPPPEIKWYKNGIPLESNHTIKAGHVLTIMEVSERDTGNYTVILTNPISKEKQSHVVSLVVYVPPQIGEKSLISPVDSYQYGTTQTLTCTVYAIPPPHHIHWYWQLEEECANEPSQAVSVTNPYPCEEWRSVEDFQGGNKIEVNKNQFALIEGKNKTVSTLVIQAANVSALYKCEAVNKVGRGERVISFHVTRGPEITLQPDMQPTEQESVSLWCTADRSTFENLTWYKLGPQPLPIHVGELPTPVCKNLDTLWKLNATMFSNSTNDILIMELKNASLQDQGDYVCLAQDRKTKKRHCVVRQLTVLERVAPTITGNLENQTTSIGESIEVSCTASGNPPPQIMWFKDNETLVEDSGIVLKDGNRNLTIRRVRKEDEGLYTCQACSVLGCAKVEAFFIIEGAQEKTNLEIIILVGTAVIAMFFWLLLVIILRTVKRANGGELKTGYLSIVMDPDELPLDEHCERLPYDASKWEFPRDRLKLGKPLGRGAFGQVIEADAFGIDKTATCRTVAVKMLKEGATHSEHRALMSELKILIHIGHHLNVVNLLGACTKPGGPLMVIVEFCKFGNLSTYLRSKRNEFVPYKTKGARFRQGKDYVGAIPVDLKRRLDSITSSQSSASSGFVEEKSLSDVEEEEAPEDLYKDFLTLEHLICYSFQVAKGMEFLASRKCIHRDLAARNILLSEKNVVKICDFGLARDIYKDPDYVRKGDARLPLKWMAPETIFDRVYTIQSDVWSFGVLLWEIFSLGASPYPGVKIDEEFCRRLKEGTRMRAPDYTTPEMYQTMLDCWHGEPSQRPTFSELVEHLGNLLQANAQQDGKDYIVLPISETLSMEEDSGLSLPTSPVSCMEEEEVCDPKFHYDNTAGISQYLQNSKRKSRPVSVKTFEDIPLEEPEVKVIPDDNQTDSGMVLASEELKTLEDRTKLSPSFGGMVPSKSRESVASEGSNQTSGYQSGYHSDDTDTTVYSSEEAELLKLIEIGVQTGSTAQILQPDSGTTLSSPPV

EGFR = EGFR (Homo sapiens, UniProt P00533); assay: In vitro protein kinase inhibition assay (ELISA kit), EGFR
Sequence of EGFR (P00533 25-1210): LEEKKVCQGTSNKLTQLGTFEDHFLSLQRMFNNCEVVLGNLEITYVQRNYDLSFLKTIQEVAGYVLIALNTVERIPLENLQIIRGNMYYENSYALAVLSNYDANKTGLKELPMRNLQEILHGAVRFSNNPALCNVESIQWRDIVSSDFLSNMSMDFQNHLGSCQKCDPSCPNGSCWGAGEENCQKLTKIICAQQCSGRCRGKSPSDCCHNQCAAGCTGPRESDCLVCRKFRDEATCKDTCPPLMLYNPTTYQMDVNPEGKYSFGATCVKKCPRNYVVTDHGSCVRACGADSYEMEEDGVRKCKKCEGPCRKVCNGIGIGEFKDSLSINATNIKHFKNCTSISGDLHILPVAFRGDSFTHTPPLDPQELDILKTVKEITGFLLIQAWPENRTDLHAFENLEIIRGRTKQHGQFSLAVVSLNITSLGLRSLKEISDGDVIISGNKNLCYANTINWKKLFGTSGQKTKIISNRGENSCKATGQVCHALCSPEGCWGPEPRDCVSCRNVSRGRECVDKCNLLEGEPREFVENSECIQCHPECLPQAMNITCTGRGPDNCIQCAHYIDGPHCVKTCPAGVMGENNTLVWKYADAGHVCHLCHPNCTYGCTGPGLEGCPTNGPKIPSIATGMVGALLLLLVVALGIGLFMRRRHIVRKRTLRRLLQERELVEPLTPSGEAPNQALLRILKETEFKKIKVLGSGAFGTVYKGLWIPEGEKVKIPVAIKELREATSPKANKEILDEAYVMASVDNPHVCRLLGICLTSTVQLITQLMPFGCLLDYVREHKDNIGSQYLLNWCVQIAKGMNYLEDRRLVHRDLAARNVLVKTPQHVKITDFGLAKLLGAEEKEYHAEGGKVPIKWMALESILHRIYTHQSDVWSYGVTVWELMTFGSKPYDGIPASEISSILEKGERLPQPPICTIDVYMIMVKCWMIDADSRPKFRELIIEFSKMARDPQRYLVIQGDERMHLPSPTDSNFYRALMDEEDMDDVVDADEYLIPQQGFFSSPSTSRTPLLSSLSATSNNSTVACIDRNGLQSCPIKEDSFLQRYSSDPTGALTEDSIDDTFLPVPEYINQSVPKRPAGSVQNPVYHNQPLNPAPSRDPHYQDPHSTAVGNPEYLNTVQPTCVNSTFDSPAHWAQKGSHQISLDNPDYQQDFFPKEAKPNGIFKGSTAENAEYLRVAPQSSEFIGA

MDA-MB-231 = assay: MTT cytotoxicity assay, MDA-MB-231; assay type: cell-based; details: Homo sapiens, 24 h treatment, mean ± SD of triplicate
Summary of the method: as §1

[4] = MTT cytotoxicity assay, normal cell line WI-38; assay type: cell-based, human; details: human, WI-38 cells (normal human lung fibroblasts), normal (non-cancer) cell line, 24 h treatment
Summary of the method: as §1

MCF-7 [5] = assay: MTT cytotoxicity assay, MCF-7; assay type: cell-based, human; details: Homo sapiens, MCF7, 24 h, 24 h treatment, mean ± SD of triplicate
Summary of the method: as §1

HeLa = assay: MTT cytotoxicity assay, HeLa; assay type: cell-based; details: Homo sapiens, 24 h treatment, mean ± SD of triplicate
Summary of the method: as §1

[6] = cell count relative to the control (17β-E2)

COc1cccc(C(=O)/C=C/c2ccc(OCc3ccccc3)cc2)c1 [Compound 4q, (E)-3-(4-(Benzyloxy)phenyl)-1-(3-methoxyphenyl)prop-2-en-1-one]
IC50 (HCT-116): 17.1 ± 1.3 µM
IC50 ([1]; HCT-116 and HeLa, read-out: IC50 values, range against HCT-116 and HeLa): 6590 to 22600 nM
IC50 ([1]; MDA-MB-231 and MCF-7, read-out: IC50 values, range against MDA-MB-231 and MCF-7): 2080 to 13600 nM
Cell Proliferation MCF-7a % (MCF-7a; [6]): 99%
Cell Proliferation MCF-7a Cell Count (MCF-7a; mean ± SD of triplicate): 20,630 ± 595
Inhibition in MCF-7a (MCF-7a; relative to control): 1%
IC50 (CDK2): ~170 nM
Inhibition (%) CDK2 (CDK2; 0.01 µM, individual Data 1-3): 24.8% and 25.2%
Inhibition (%) CDK2 (CDK2; 0.1 µM, individual Data 1-3): 41.7% and 42.2%
Inhibition (%) CDK2 (CDK2; 1 µM, individual Data 1-3): 70.9% and 71.2%
Inhibition (%) CDK2 (CDK2; 10 µM, individual Data 1-3): 87.8% and 88.3%
Inhibition (%) CDK2 (CDK2; 100 µM, individual Data 1-3): 96% and 96.6%
inhibition at 0.1 µM (CDK2; read-out: Inhibition % at 0.1 µM CDK2, 0.1 µM, the data between the highest and lowest values): 41.9%
inhibition at 0.01 µM (CDK2; read-out: Inhibition (%) CDK2, 0.01 µM, individual Data 1-3): 25.1%
inhibition at 0.1 µM (CDK2; read-out: Inhibition (%) CDK2, 0.1 µM, individual Data 1-3): 41.9%
inhibition at 1 µM (CDK2; read-out: Inhibition (%) CDK2, 1 µM, individual Data 1-3): 71.1%
inhibition at 10 µM (CDK2; read-out: Inhibition (%) CDK2, 10 µM, individual Data 1-3): 88.1%
inhibition at 100 µM (CDK2; read-out: Inhibition (%) CDK2, 100 µM, individual Data 1-3): 96.3%
Cell Proliferation MCF-7 % (MCF-7 [2]; [6]): 37%
Cell Proliferation MCF-7 Cell Count (MCF-7 [2]; mean ± SD of triplicate): 6874 ± 245
Reduction of growth/cell count (inhibition) in MCF-7 (MCF-7 [2]; relative to control): 63%
IC50 (HER2): ~144 nM
Inhibition (%) Her2 (HER2; 0.01 µM, individual Data 1-3): 25% and 25.9%
Inhibition (%) Her2 (HER2; 0.1 µM, individual Data 1-3): 47.70% and 48.76%
Inhibition (%) Her2 (HER2; 1 µM, individual Data 1-3): 68.30% and 69.5%
Inhibition (%) Her2 (HER2; 10 µM, individual Data 1-3): 86.89% and 87.78%
Inhibition (%) Her2 (HER2; 100 µM, individual Data 1-3): 95.7% and 96.9%
inhibition at 0.1 µM (HER2; read-out: Inhibition % at 0.1 µM HER2, 0.1 µM, the data between the highest and lowest values): 48%
inhibition at 0.01 µM (HER2; read-out: Inhibition (%) Her2, 0.01 µM, individual Data 1-3): 25.6%
inhibition at 0.1 µM (HER2; read-out: Inhibition (%) Her2, 0.1 µM, individual Data 1-3): 48%
inhibition at 1 µM (HER2; read-out: Inhibition (%) Her2, 1 µM, individual Data 1-3): 68.9%
inhibition at 10 µM (HER2; read-out: Inhibition (%) Her2, 10 µM, individual Data 1-3): 87.3%
inhibition at 100 µM (HER2; read-out: Inhibition (%) Her2, 100 µM, individual Data 1-3): 96.2%
Inhibition (%) Aromatase ([3]; 0.01 µM, individual Data 1-3): 6.6% and 8.9%
Inhibition (%) Aromatase ([3]; 0.1 µM, individual Data 1-3): 17.9% and 20.7%
Inhibition (%) Aromatase ([3]; 1 µM, individual Data 1-3): 54% and 53.8%
Inhibition (%) Aromatase ([3]; 10 µM, individual Data 1-3): 81.5% and 83.9%
Inhibition (%) Aromatase ([3]; 100 µM, individual Data 1-3): 91.6% and 93.8%
IC50 ([3]; mean ± SD of triplicate, approximate values, read-out: Aromatase Inhibition IC50): 901 nM and 801 nM
inhibition at 0.01 µM ([3]; read-out: Inhibition (%) Aromatase, 0.01 µM, individual Data 1-3): 7.8%
inhibition at 0.1 µM ([3]; read-out: Inhibition (%) Aromatase, 0.1 µM, individual Data 1-3): 19%
inhibition at 1 µM ([3]; read-out: Inhibition (%) Aromatase, 1 µM, individual Data 1-3): 55.9%
inhibition at 10 µM ([3]; read-out: Inhibition (%) Aromatase, 10 µM, individual Data 1-3): 82%
inhibition at 100 µM ([3]; read-out: Inhibition (%) Aromatase, 100 µM, individual Data 1-3): 92%
IC50 (VEGFR-2): 287 ± 10 nM
Inhibition (%) VEGFR2 (VEGFR-2; 0.01 µM, individual Data 1-3): 16.9%
Inhibition (%) VEGFR2 (VEGFR-2; 0.1 µM, individual Data 1-3): 38.9% and 39.1%
Inhibition (%) VEGFR2 (VEGFR-2; 1 µM, individual Data 1-3): 66.7% and 66.4%
Inhibition (%) VEGFR2 (VEGFR-2; 10 µM, individual Data 1-3): 87.1% and 87.6%
Inhibition (%) VEGFR2 (VEGFR-2; 100 µM, individual Data 1-3): 95.4% and 95.9%
inhibition at 0.01 µM (VEGFR-2; read-out: Inhibition (%) VEGFR2, 0.01 µM, individual Data 1-3): 17%
inhibition at 0.1 µM (VEGFR-2; read-out: Inhibition (%) VEGFR2, 0.1 µM, individual Data 1-3): 39%
inhibition at 1 µM (VEGFR-2; read-out: Inhibition (%) VEGFR2, 1 µM, individual Data 1-3): 66.8%
inhibition at 10 µM (VEGFR-2; read-out: Inhibition (%) VEGFR2, 10 µM, individual Data 1-3): 87.3%
inhibition at 100 µM (VEGFR-2; read-out: Inhibition (%) VEGFR2, 100 µM, individual Data 1-3): 95.7%
IC50 (EGFR): 151 ± 5 nM
Inhibition (%) EGFR (EGFR; 0.01 µM, individual Data 1-3): 22.9% and 24.2%
Inhibition (%) EGFR (EGFR; 0.1 µM, individual Data 1-3): 45.2% and 47.5%
Inhibition (%) EGFR (EGFR; 1 µM, individual Data 1-3): 71.9% and 70.2%
Inhibition (%) EGFR (EGFR; 10 µM, individual Data 1-3): 86.9% and 90%
Inhibition (%) EGFR (EGFR; 100 µM, individual Data 1-3): 95.6% and 97.9%
inhibition at 0.01 µM (EGFR; read-out: Inhibition (%) EGFR, 0.01 µM, individual Data 1-3): 23.4%
inhibition at 0.1 µM (EGFR; read-out: Inhibition (%) EGFR, 0.1 µM, individual Data 1-3): 46.8%
inhibition at 1 µM (EGFR; read-out: Inhibition (%) EGFR, 1 µM, individual Data 1-3): 72%
inhibition at 10 µM (EGFR; read-out: Inhibition (%) EGFR, 10 µM, individual Data 1-3): 88.4%
inhibition at 100 µM (EGFR; read-out: Inhibition (%) EGFR, 100 µM, individual Data 1-3): 96.3%
IC50 (MDA-MB-231): 13.6 ± 1.1 µM
IC50 at 24 h [4]: > 100 µM
IC50 (MCF-7 [5]): 11.6 ± 0.9 µM
IC50 (HeLa): 22.6 ± 1.7 µM
